Target: T1, Menin (Homo sapiens, UniProt O00255)
T1 sequence (O00255 whole entry): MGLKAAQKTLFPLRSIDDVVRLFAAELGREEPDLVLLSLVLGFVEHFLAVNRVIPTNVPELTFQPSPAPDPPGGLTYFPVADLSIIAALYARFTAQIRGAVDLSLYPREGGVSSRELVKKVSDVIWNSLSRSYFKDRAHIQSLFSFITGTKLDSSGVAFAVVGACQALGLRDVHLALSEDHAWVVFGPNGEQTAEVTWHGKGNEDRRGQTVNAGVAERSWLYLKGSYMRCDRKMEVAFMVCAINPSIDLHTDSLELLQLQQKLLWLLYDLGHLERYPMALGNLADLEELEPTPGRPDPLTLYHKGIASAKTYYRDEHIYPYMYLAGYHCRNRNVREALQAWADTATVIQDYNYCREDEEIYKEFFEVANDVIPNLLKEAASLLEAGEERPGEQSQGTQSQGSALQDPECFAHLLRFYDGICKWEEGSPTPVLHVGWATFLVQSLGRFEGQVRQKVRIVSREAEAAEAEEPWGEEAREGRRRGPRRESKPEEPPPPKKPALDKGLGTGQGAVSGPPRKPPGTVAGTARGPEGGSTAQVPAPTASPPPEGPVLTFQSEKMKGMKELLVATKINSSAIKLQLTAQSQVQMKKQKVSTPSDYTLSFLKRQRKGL
Assay: Inhibition of FAM-probe binding to Menin (unknown origin) after 60 mins by fluorescence polarization competitive binding assay

IC50: 3500 nM
Ki: 1100 nM
Structure (SMILES): CC(=O)O[C@@H]1CCC[C@H]1[C@](C#N)(c1ccccc1)C1CCN(CC2CN(c3ccc(C#N)cc3)C2)CC1
